Measurements from patent US10208071B2, “Use of agonists of formyl peptide receptor 2 for treating ocular inflammatory diseases” (Allergan, Inc., priority 2013, dated 2019).

Molecular target: FPR2 (Homo sapiens (Human), UniProt P25090)
Assay: FLIPR Ca+2 response, HEK-Gα16 cells stably expressing the human FPR2 receptor (Table 4)
Assay type: cell-based
Conditions: for FPR2 (efficacy): efficacy in parentheses
Summary of the method: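 HEK-Gα16 cells stably expressing human FPR2, loaded with 2 μM Fluo-4 in HBSS/20 mM HEPES for 40 min at 37° C., then washed. Ligands added in HBSS/Hepes and Ca+2 responses recorded on FLIPR in relative fluorescence units.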

Chain of FPR2 (P25090 whole entry): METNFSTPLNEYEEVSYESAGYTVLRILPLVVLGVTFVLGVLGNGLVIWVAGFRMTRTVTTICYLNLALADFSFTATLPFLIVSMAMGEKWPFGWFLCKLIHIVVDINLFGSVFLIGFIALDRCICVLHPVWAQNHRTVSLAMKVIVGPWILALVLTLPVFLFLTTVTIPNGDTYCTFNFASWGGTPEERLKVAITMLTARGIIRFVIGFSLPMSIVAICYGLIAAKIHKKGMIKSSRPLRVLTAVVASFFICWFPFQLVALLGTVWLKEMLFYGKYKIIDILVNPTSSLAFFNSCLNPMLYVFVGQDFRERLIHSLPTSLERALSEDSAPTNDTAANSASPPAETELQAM

CC1(CCc2ccccc2O)NC(=O)N(NC(=O)Nc2ccc(Br)cc2F)C1=O (stereo not drawn) [Compound 106, 1-(4-bromo-2-fluorophenyl)-3-{4-[2-(2-hydroxyphenyl)ethyl]-4-methyl-2,5-dioxoimidazolidin-1-yl}urea]
EC50: 4 nM
FPR2 (efficacy): nM (0.91)

CC1(CCc2cccc(O)c2)NC(=O)N(NC(=O)Nc2ccc(Br)cc2F)C1=O (stereo not drawn) [Compound 107, 1-(4-bromo-2-fluorophenyl)-3-{4-[2-(3-hydroxyphenyl)ethyl]-4-methyl-2,5-dioxoimidazolidin-1-yl}urea]
EC50: 2.2 nM
FPR2 (efficacy): nM (0.79)

CC1(CCc2cccc(O)c2)NC(=O)N(NC(=O)Nc2ccc(Br)cc2)C1=O (stereo not drawn) [Compound 108, 1-(4-bromophenyl)-3-{4-[2-(3-hydroxyphenyl)ethyl]-4-methyl-2,5-dioxoimidazolidin-1-yl}urea]
EC50: 2.1 nM
FPR2 (efficacy): nM (1.0)

CC1(CCc2ccccc2O)NC(=O)N(NC(=O)Nc2ccc(Br)cc2)C1=O (stereo not drawn) [Compound 109, 1-(4-bromophenyl)-3-{4-[2-(2-hydroxyphenyl)ethyl]-4-methyl-2,5-dioxoimidazolidin-1-yl}urea]
FPR2 (efficacy): nM (0.93)

CC(C)CC(C)(NC(=O)Nc1ccc(Br)cc1)C(=O)O (stereo not drawn) [Compound 110, 2-{[(4-bromophenyl)carbamoyl]amino}-2,4-dimethylpentanoic acid]
EC50: 19.4 nM
FPR2 (efficacy): nM (0.98)

CC(C)CC(C)(NC(=O)Nc1ccc(Br)cc1)C(=O)NCC(=O)O (stereo not drawn) [Compound 111, [(2-{[(4-bromophenyl)carbamoyl]amino}-2,4-dimethylpentanoyl)amino] acetic acid]
EC50: 19.1 nM
FPR2 (efficacy): nM (0.99)

CCOP(=O)(CNC(=O)[C@H](CC(C)C)NC(=O)Nc1ccc(Br)cc1)OCC [Compound 112, diethyl ({[(2S)-2-{[(4-bromophenyl)carbamoyl]amino}-4-methylpentanoyl]amino}methyl)phosphonate]
EC50: 0.48 nM

CCC(CC)(NC(=O)Nc1ccc(Br)cc1)C(=O)NCC(=O)O [Compound 113]
EC50: 18.7 nM
FPR2 (efficacy): nM (1.0)

CCOP(=O)(CNC(=O)[C@@H](NC(=O)Nc1ccc(Br)cc1)[C@@H](C)CC)OCC [Compound 114, diethyl ({[(2S,3S)-2-{[(4-bromophenyl)carbamoyl]amino}-3-methylpentanoyl]amino}methyl)phosphonate]
EC50: 2.9 nM
FPR2 (efficacy): nM (1.0)

CCOP(=O)(O)CNC(=O)[C@@H](NC(=O)Nc1ccc(Br)cc1)[C@@H](C)CC [Compound 115, ethyl hydrogen ({[(2S,3S)-2-{[(4-bromophenyl)carbamoyl]amino}-3-methylpentanoyl]amino}methyl)phosphonate]
EC50: 2.7 nM
FPR2 (efficacy): nM (0.88)

CC(C)C[C@H](NC(=O)Nc1ccc(Br)cc1)C(=O)NCc1cc(O)no1 [Compound 116, (2S)-2-{[(4-bromophenyl)carbamoyl]amino}-N-[(3-hydroxy-1,2-oxazol-5-yl)methyl]-4-methylpentanamide]
FPR2 (efficacy): nM (1.0)

CCC[C@H](NC(=O)Nc1ccc(Br)cc1)C(=O)NCP(=O)(OCC)OCC [Compound 117, diethyl ({[(2S)-2-{[(4-bromophenyl)carbamoyl]amino}pentanoyl]amino}methyl) phosphonate]
EC50: 0.27 nM
FPR2 (efficacy): nM (1.0)

CCOP(=O)(CNC(=O)[C@H](Cc1ccccc1)NC(=O)Nc1ccc(Br)cc1)OCC [Compound 118, diethyl ({[(2S)-2-{[(4-bromophenyl)carbamoyl]amino}-3-phenylpropanoyl]amino}methyl)phosphonate]
EC50: 16.1 nM
FPR2 (efficacy): nM (0.93)

CCOP(=O)(CCNC(=O)[C@H](CC(C)C)NC(=O)Nc1ccc(Br)cc1)OCC [Compound 119, diethyl (2-{[(2S)-2-{[(4-bromophenyl)carbamoyl]amino}-4-methylpentanoyl]amino}ethyl) phosphonate]
EC50: 16.1 nM

CC(C)C[C@H](NC(=O)Nc1ccc(Br)cc1)C(=O)NCC(=O)N(C)C [Compound 120, (2S)-2-{[(4-bromophenyl)carbamoyl]amino}-N-[2-(dimethylamino)-2-oxoethyl]-4-methylpentanamide]
EC50: 1.7 nM
FPR2 (efficacy): nM (0.99)

CC(C)C[C@H](NC(=O)Nc1ccc(I)cc1)C(=O)O [Compound 121, (2S)-2-{[(4-iodophenyl)carbamoyl]amino}-4-methylpentanoic acid]
EC50: 4 nM
FPR2 (efficacy): nM (0.93)

CCC[C@H](NC(=O)Nc1ccc(Br)cc1)C(=O)NCP(=O)(O)OCC [Compound 123, ethyl hydrogen ({[(2S)-2-{[(4-bromophenyl)carbamoyl]amino}pentanoyl]amino}methyl) phosphonate]
FPR2 (efficacy): nM (0.96)

CC(C)C[C@H](NC(=O)Nc1ccc(C(F)(F)F)cc1)C(=O)NCC(=O)O [Compound 124, {[(2S)-4-methyl-2-({[4-(trifluoromethyl)phenyl]carbamoyl}amino)pentanoyl]amino}acetic acid]
FPR2 (efficacy): nM (1.0)

CCC[C@H](NC(=O)Nc1ccc(Br)cc1)C(=O)NCP(=O)(OC(C)C)OC(C)C [Compound 125, dipropan-2-yl ({[(2S)-2-{[(4-bromophenyl)carbamoyl]amino}pentanoyl]amino}methyl) phosphonate]
EC50: 1.2 nM
FPR2 (efficacy): nM (1.0)

CCOP(=O)(O)CNC(=O)[C@H](Cc1ccccc1)NC(=O)Nc1ccc(Br)cc1 [Compound 126, ethyl hydrogen ({[(2S)-2-{[(4-bromophenyl)carbamoyl]amino}-3-phenylpropanoyl]amino}methyl)phosphonate]
FPR2 (efficacy): nM (1.0)

CC(C)C[C@H](NC(=O)Nc1ccc(Br)cc1)C(=O)NCS(=O)(=O)O [Compound 127, {[(2S)-2-{[(4-bromophenyl)carbamoyl]amino}-4-methylpentanoyl]amino} methanesulfonic acid]
EC50: 2 nM
FPR2 (efficacy): nM (0.91)

CSc1ccc(NC(=O)N[C@@H](CC(C)C)C(=O)O)cc1 [Compound 128, (2S)-4-methyl-2-({[4-(methylsulfanyl)phenyl]carbamoyl}amino)pentanoic acid]
EC50: 16.8 nM
FPR2 (efficacy): nM (0.92)

CSc1ccc(NC(=O)N[C@@H](CC(C)C)C(=O)NCC(=O)O)cc1 [Compound 130, {[(2S)-4-methyl-2-({[4-(methylsulfanyl)phenyl]carbamoyl}amino)pentanoyl]amino} acetic acid]
EC50: 3 nM
FPR2 (efficacy): nM (1.0)

CC(C)C[C@H](NC(=O)Nc1ccc(Br)cc1)C(=O)NCP(=O)(OC(C)C)OC(C)C [Compound 131, dipropan-2-yl ({[(2S)-2-{[(4-bromophenyl)carbamoyl]amino}-4-methylpentanoyl]amino}methyl)phosphonate]
FPR2 (efficacy): nM (1.0)

CC(C)C1(CO)NC(=O)N(NC(=O)Nc2ccc(Br)cc2)C1=O (stereo not drawn) [Compound 132, 1-(4-bromophenyl)-3-[4-(hydroxymethyl)-2,5-dioxo-4-(propan-2-yl)imidazolidin-1-yl]urea]
EC50: 16.2 nM
FPR2 (efficacy): nM (0.86)

CC(C)C1(CC(=O)NCCO)NC(=O)N(NC(=O)Nc2ccc(Br)cc2)C1=O (stereo not drawn) [Compound 133, 2-[1-{[(4-bromophenyl)carbamoyl]amino}-2,5-dioxo-4-(propan-2-yl)imidazolidin-4-yl]-N-(2-hydroxyethyl)acetamide]
EC50: 2.7 nM
FPR2 (efficacy): nM (1.0)

CCOP(=O)(CNC(=O)[C@H](CC(C)C)NC(=O)Nc1ccc(C(F)(F)F)cc1)OCC [Compound 134, diethyl ({[(2S)-4-methyl-2-({[4-(trifluoromethyl)phenyl]carbamoyl}amino)pentanoyl]amino}methyl)phosphonate]
EC50: 5.5 nM
FPR2 (efficacy): nM (0.97)

CCOP(=O)(O)CNC(=O)[C@H](CC(C)C)NC(=O)Nc1ccc(C(F)(F)F)cc1 [Compound 135, ethyl hydrogen ({[(2S)-4-methyl-2-({[4-(trifluoromethyl)phenyl]carbamoyl}amino)pentanoyl]amino}methyl)phosphonate]
EC50: 1.9 nM
FPR2 (efficacy): nM (0.91)

CC(C)C[C@H](NC(=O)Nc1ccc(C(F)(F)F)cc1)C(=O)NCc1nnn[nH]1 [Compound 136, (2S)-4-methyl-N-(1H-tetrazol-5-ylmethyl)-2-({[4-(trifluoromethyl)phenyl]carbamoyl}amino)pentanamide]
EC50: 3.7 nM
FPR2 (efficacy): nM (0.96)

CCOP(=O)(CNC(=O)[C@H](CC(C)C)NC(=O)Nc1ccc(SC)cc1)OCC [Compound 138, diethyl ({[(2S)-4-methyl-2-({[4-(methylsulfanyl)phenyl]carbamoyl}amino)pentanoyl]amino}methyl)phosphonate]
EC50: 3.5 nM
FPR2 (efficacy): nM (0.91)

CC(C)C[C@H](NC(=O)Nc1ccc(C(F)(F)F)cc1)C(=O)NC(C)(C)C(=O)O [Compound 139, 2-methyl-2-{[(2S)-4-methyl-2-({[4-(trifluoromethyl)phenyl]carbamoyl}amino)pentanoyl]amino} propanoic acid]
EC50: 2.5 nM
FPR2 (efficacy): nM (0.92)

CCC1(CCc2ccccc2C(=O)OC)NC(=O)N(NC(=O)Nc2ccc(Br)cc2)C1=O (stereo not drawn) [Compound 141, methyl 2-[2-(1-{[(4-bromophenyl)carbamoyl]amino}-4-ethyl-2,5-dioxoimidazolidin-4-yl)ethyl]benzoate]
EC50: 10.3 nM
FPR2 (efficacy): nM (0.92)

CC(C)C1(CC(=O)NC(CO)CO)NC(=O)N(NC(=O)Nc2ccc(Br)cc2)C1=O (stereo not drawn) [Compound 142, 2-[1-{[(4-bromophenyl)carbamoyl]amino}-2,5-dioxo-4-(propan-2-yl)imidazolidin-4-yl]-N-(1,3-dihydroxypropan-2-yl)acetamide]
EC50: 13.8 nM
FPR2 (efficacy): nM (0.92)

CCC1(CCc2ccccc2C(=O)O)NC(=O)N(NC(=O)Nc2ccc(Br)cc2)C1=O (stereo not drawn) [Compound 143, 2-[2-(1-{[(4-bromophenyl)carbamoyl]amino}-4-ethyl-2,5-dioxoimidazolidin-4-yl)ethyl]benzoic acid]
EC50: 17.2 nM
FPR2 (efficacy): nM (1.0)
